pIC50: −log10 of the molar value.
What was measured:
[1] = molecular target: T1, G1 APOL1 (Homo sapiens, UniProt O14791, I384M/S342G); test: Acute APOL1 Thallium Assay with Inducible Stable Clones of HEK 293 Cells; type: cell-based; details: HEK 293 inducible stable clones, G1 APOL1; read-out: Thallium Assay (IC50)
T1 construct: expressed in transfected cells
T1 sequence (O14791 28-398 S342G/I384M): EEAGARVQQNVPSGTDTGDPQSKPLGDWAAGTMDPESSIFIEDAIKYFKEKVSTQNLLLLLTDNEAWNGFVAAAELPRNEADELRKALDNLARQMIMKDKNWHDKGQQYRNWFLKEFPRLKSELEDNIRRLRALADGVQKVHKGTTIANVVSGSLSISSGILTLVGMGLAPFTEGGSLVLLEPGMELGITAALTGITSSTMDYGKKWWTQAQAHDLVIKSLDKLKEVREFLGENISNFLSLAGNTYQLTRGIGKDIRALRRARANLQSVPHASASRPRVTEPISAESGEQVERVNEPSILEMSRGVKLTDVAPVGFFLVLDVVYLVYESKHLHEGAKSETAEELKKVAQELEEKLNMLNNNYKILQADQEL
Summary of the method: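 Pore activity was read as the fluorescence increase from Tl+ entering cells loaded with an AM-ester thallium indicator dye. The cells were tetracycline-inducible HEK293 T-Rex expressing G1 APOL1 (clone DC3.25), induced when plated at 26000 per well and incubated at 37° C.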

[2] = molecular target: T2, APOL1 G1 Protein (Homo sapiens, UniProt O14791, I384M/S342G); test: Trypanosoma brucei brucei Lysis Assay Using APOL1 Recombinant Protein (AlamarBlue viability); type: cell-based; details: read-out: Trypanosomal Assay (IC50)
T2 sequence (O14791 28-398 S342G/I384M): T1 sequence (O14791 28-398 S342G/I384M)
From the text: Trypanosoma brucei brucei is a blood stream parasite to which human, gorillas and baboon are immune due to the presence of the APOL1 protein in their HDL particles. The protein is uptaken by the parasite via the TbHpHb receptor located in its flagellar pocket and is bonded by the Hpr protein contained in the HDL particles which triggers the receptor endocytosis by the parasite.
Following endocytosis, the formed vesicle containing the HDL particle matures from early to late endosome, and subsequently to lysosome. The concomitant pH change in the lumen of the vesicle triggers the insertion of the APOL1 protein into the membrane of the late endosome/lysosome and hereby triggers lysosomal membrane permeabilization and as a further downstream event, trypanosome lysis. Trypanosoma brucei brucei is sensitive to lysis by all three APOL1 variants (G0, G1, and G2).
The Trypanosoma brucei brucei lysis assay is a lysis assay of the parasite using recombinant APOL1 protein variant followed by a fluorescent detection method of viability by the addition of AlamarBlue reagent to the assay well, a general metabolic redox indicator (AlamarBlue assay).
Briefly, the AlamarBlue active compound, the resazurin, a blue, water soluble, non-toxic and cell permeable molecule, which can be followed by absorbance, is reduced by various metabolic pathways into resorufin, a red compound which can be followed by either absorbance or fluorescence. The assay allows the calculation of the percent viability (percent of living Trypanosomes remaining in each well) at the end of a lysis relative to the untreated condition by interpolation of fluorescent values (FLU) on a standard curve with a known amount of seeded trypanosome/well.
Trypanosoma brucei brucei (ATCC, Cat. No. PRA-382) • Lister 427 VSG 221 bloodstream form.
Thaw/Expansion Media (ATCC Medium 2834 Modified HMI-9 Medium)
Assay Media (No Phenol Red/No FBS): Make on Day of Use
Hypoxanthine Stock (100×)-9 (10×)
Equipment • E1-Clip Tip pipette 12 channel adjustable 2-125 μL, Cat. No. 4672070BT • ThermoFisher MultiDrop 384, Cat. No. 5840300 • Multidrop • Agilent Bravo, Cat. No. G5409A • Bravo • SpectraMax M5
Trypanosoma brucei brucei Culture
Step 2, Day 4 • Centrifuge at 800×g for 5 minutes at room temperature. • Resuspend in 1 mL media. • Make a 1:25 fold dilution (10 μL/240 μL media). • Count on a hemocytometer (after adding parasites). • Let sit for 1-2 minutes for the parasites to settle. • Count should be approximately 100 viable motile parasites/16 grid or approximately 25×10^6 parasites/flask. • Passage the parasites by adding 1×10^6 parasites/T75 flask in 20 mL media. • Passage the parasites by adding 2.33×10^6 parasites/T175 flask in 46.6 mL media. • For every T75 flask should make enough for approximately 1.5×384 well assay plates. • For every T175 flask should make enough for approximately 3.8×384 well assay plates.
Step 3, Day 6 • Centrifuge at 800×g for 5 minutes. • Resuspend in 3 mL assay media (No phenol red, no FBS) per 75 starting flask. • Resuspend in 7 mL assay media (No phenol red, no FBS) per 175 flask • Make a 1:25 fold dilution. • Count by hemocytometer. • Every T75 flask set up should have approximately 75×10^6 parasites/flask (verify doubling time=8.7 hours±1 hour). • Every T175 flask set up should have approximately 175×10^6 parasites/flask (verify doubling time=8.7 hours±1 hour). • Require 46×10^6 parasites per 384 well plate (at 120,000 parasites per well). […]

pIC50 [1]	SMILES	pIC50 [2]
< 6.00	O=C(CCc1c(-c2ccc(F)cc2)[nH]c2ccc(F)cc12)NC1COC1 [Compound 69]	< 6.00
6.00 to 6.60	O=C(CCc1c(-c2ccc(F)cc2)[nH]c2ccc(F)cc12)Nc1cc[nH]n1 [Compound 70]	< 6.00
< 6.00	O=C(CCc1c(-c2ccc(F)cc2)[nH]c2ccc(F)cc12)N1CCCC1CO (stereo not drawn) [Compound 71]	< 6.00
< 6.00	CN(CCNC(=O)OC(C)(C)C)C(=O)CCc1c(-c2ccc(F)cc2)[nH]c2ccc(F)cc12 [Compound 72]	< 6.00
< 6.00	CNC(=O)CCc1c(-c2ccc(F)cc2)[nH]c2ccc(F)cc12 [Compound 73]	< 6.00
< 6.00	CCC(C)(O)CNC(=O)CCc1c(-c2ccc(F)cc2)[nH]c2ccc(F)cc12 (stereo not drawn) [Compound 74]	< 6.00
< 6.00	CC(C)C(CO)NC(=O)CCc1c(-c2ccc(F)cc2)[nH]c2ccc(F)cc12 (stereo not drawn) [Compound 75]	< 6.00
< 6.00	CC(C)(C)OC(=O)N1C[C@H](NC(=O)CCc2c(-c3ccc(F)cc3)[nH]c3ccc(F)cc23)[C@@H](O)C1 [Compound 76]	< 6.00
< 6.00	C[C@H](O)CNC(=O)CCc1c(-c2ccc(F)cc2)[nH]c2ccc(F)cc12 [Compound 78]	< 6.00
< 6.00	C[C@@H](O)CNC(=O)CCc1c(-c2ccc(F)cc2)[nH]c2ccc(F)cc12 [Compound 79]	< 6.00
< 6.00	CC[C@@H](CO)NC(=O)CCc1c(-c2ccc(F)cc2)[nH]c2ccc(F)cc12 [Compound 80]	< 6.00
< 6.00	O=C(CCc1c(-c2ccc(F)cc2)[nH]c2ccc(F)cc12)N1CCCC(O)C1 (stereo not drawn) [Compound 81]	< 6.00
< 6.00	O=C(CCc1c(-c2ccc(F)cc2)[nH]c2ccc(F)cc12)NCC1(O)CC1 [Compound 82]	< 6.00
< 6.00	CC(C)(C)OC(=O)N[C@H]1C[C@@H](NC(=O)CCc2c(-c3ccc(F)cc3)[nH]c3ccc(F)cc23)C1 [Compound 83]	< 6.00
< 6.00	O=C(CCc1c(-c2ccc(F)cc2)[nH]c2ccc(F)cc12)N[C@H]1C[C@H](O)C1 [Compound 84]	< 6.00
< 6.00	O=C(CCc1c(-c2ccc(F)cc2)[nH]c2ccc(F)cc12)NCCCO [Compound 85]	< 6.00
< 6.00	CC1(O)CN(C(=O)CCc2c(-c3ccc(F)cc3)[nH]c3ccc(F)cc23)C1 [Compound 86]	< 6.00
< 6.00	O=C(CCc1c(-c2ccc(F)cc2)[nH]c2ccc(F)cc12)N[C@H]1C[C@@H](O)C1 [Compound 87]	< 6.00
6.00 to 6.60	CC[C@H](CO)NC(=O)CCc1c(-c2ccc(F)cc2)[nH]c2ccc(F)cc12 [Compound 89]	> 6.60
6.00 to 6.60	O=C(CCc1c(-c2ccc(F)cc2)[nH]c2ccc(F)cc12)NC(CO)CF (stereo not drawn) [Compound 90]	> 6.60
> 6.60	O=C(CCc1c(-c2ccc(F)cc2)[nH]c2c(F)cc(F)cc12)NC1(CO)CCC1 [Compound 91, 3-[5,7-difluoro-2-(4-fluorophenyl)-1H-indol-3-yl]-N-[1-(hydroxymethyl)-cyclobutyl]propanamide]	> 6.60

pIC50 [1]	SMILES	pIC50 [2]
< 6.00	Cc1nc(NC(=O)CCc2c(-c3ccc(F)cc3)[nH]c3c(F)cc(F)cc23)no1 [Compound 92, 3-[5,7-difluoro-2-(4-fluorophenyl)-1H-indol-3-yl]-N-(5-methyl-1,2,4-oxadiazol-3-yl)propanamide]	< 6.00
< 6.00	CS(=O)(=O)NC(=O)CCc1c(-c2ccc(F)cc2)[nH]c2c(F)cc(F)cc12 [Compound 93, 3-[5,7-difluoro-2-(4-fluorophenyl)-1H-indol-3-yl]-N-methylsulfonyl-propanamide]	< 6.00
6.00 to 6.60	O=C(CCc1c(-c2ccc(F)cc2)[nH]c2c(F)cc(F)cc12)NC(CO)(CO)CO [Compound 95]	6.00 to 6.60
6.00 to 6.60	O=C(CCc1c(-c2ccc(F)cc2)[nH]c2c(F)cc(F)cc12)Nc1c[nH][nH]c1=O [Compound 97]	< 6.00
6.00 to 6.60	NC(=O)[C@@H](CO)NC(=O)CCc1c(-c2ccc(F)cc2)[nH]c2c(F)cc(F)cc12 [Compound 98]	< 6.00
> 6.60	O=C(CCc1c(-c2ccc(F)cc2)[nH]c2c(F)cc(F)cc12)NC(CO)CF (stereo not drawn) [Compound 99]	> 6.60
> 6.60	O=C(CCc1c(-c2ccc(F)cc2)[nH]c2c(F)cc(F)cc12)NC1CCCC1=O (stereo not drawn) [Compound 101]	> 6.60
6.00 to 6.60	COCC1(NC(=O)CCc2c(-c3ccc(F)cc3)[nH]c3c(F)cc(F)cc23)CC1 [Compound 102]	6.00 to 6.60
6.00 to 6.60	CC(C)(CO)NC(=O)CCc1c(-c2ccc(F)cc2)[nH]c2c(F)cc(F)cc12 [Compound 103]	6.00 to 6.60
< 6.00	O=C(CCc1c(-c2ccc(F)cc2)[nH]c2c(F)cc(F)cc12)N1CC(CO)C1 [Compound 104]	< 6.00
> 6.60	N#CC(CO)NC(=O)CCc1c(-c2ccc(F)cc2)[nH]c2c(F)cc(F)cc12 (stereo not drawn) [Compound 106]	6.00 to 6.60
< 6.00	Cn1ccnc1NC(=O)CCc1c(-c2ccc(F)cc2)[nH]c2c(F)cc(F)cc12 [Compound 108]	< 6.00
6.00 to 6.60	C[C@@H](CO)NC(=O)CCc1c(-c2ccc(F)cc2)[nH]c2c(F)cc(F)cc12 [Compound 109]	6.00 to 6.60
< 6.00	NC(=O)CNC(=O)CCc1c(-c2ccc(F)cc2)[nH]c2c(F)cc(F)cc12 [Compound 111]	< 6.00
< 6.00	O=C(CCc1c(-c2ccc(F)cc2)[nH]c2c(F)cc(F)cc12)N1CC[C@@H]1CO [Compound 112]	6.00 to 6.60
< 6.00	O=C(CCc1c(-c2ccc(F)cc2)[nH]c2c(F)cc(F)cc12)NC1CCCNC1=O (stereo not drawn) [Compound 113]	6.00 to 6.60
< 6.00	O=C(CCc1c(-c2ccc(F)cc2)[nH]c2c(F)cc(F)cc12)NC[C@H](O)C(F)(F)F [Compound 114]	< 6.00
< 6.00	O=C(CCc1c(-c2ccc(F)cc2)[nH]c2c(F)cc(F)cc12)NC1(CO)CCOC1 (stereo not drawn) [Compound 116]	< 6.00
< 6.00	O=C(CCc1c(-c2ccc(F)cc2)[nH]c2c(F)cc(F)cc12)N1CCC[C@@H]1CO [Compound 117]	6.00 to 6.60
6.00 to 6.60	C#CC(CO)CNC(=O)CCc1c(-c2ccc(F)cc2)[nH]c2c(F)cc(F)cc12 (stereo not drawn) [Compound 118]	6.00 to 6.60
< 6.00	O=C(CCc1c(-c2ccc(F)cc2)[nH]c2c(F)cc(F)cc12)Nc1ccncc1 [Compound 119]	< 6.00
